# ChEMBL document CHEMBL4627246, “Pyroglutamide-Based P2X7 Receptor Antagonists Targeting Inflammatory Bowel Disease” (J Med Chem, 2020)
# Tested on: RPMI-8226
# Experiment: Cytotoxicity against human RPMI8226 cells assessed as effect on cell growth at 10 uM incubated for 48 hrs by sulforhodamine B assay
# Format: cell-based
# Conditions: rpmi-8226, 48 h
row,SMILES,Activity
1,O=C(NCc1ccc(Cl)cc1Cl)c1ccccn1,Non-Toxic
2,O=C(NCCc1ccccc1)[C@@H]1CCC(=O)N1Cc1ccc(Cl)cc1Cl,Non-Toxic
3,O=C1N[C@H](C(=O)NCc2ccc(Cl)cc2Cl)C/C1=N\O (stereo in doubt),Non-Toxic

# Tested on: EKVX
# Experiment: Cytotoxicity against human EKVX cells assessed as effect on cell growth at 10 uM incubated for 48 hrs by sulforhodamine B assay
# Format: cell-based
# Conditions: not given
row,SMILES,Activity
1,O=C(NCc1ccc(Cl)cc1Cl)c1ccccn1,Non-Toxic
2,O=C(NCCc1ccccc1)[C@@H]1CCC(=O)N1Cc1ccc(Cl)cc1Cl,Non-Toxic
3,O=C1N[C@H](C(=O)NCc2ccc(Cl)cc2Cl)C/C1=N\O (stereo in doubt),Non-Toxic

# Tested on: SW-620
# Experiment: Cytotoxicity against human SW620 cells assessed as effect on cell growth at 10 uM incubated for 48 hrs by sulforhodamine B assay
# Format: cell-based
# Conditions: sw-620, 48 h
row,SMILES,Activity
1,O=C(NCc1ccc(Cl)cc1Cl)c1ccccn1,Non-Toxic
2,O=C(NCCc1ccccc1)[C@@H]1CCC(=O)N1Cc1ccc(Cl)cc1Cl,Non-Toxic
3,O=C1N[C@H](C(=O)NCc2ccc(Cl)cc2Cl)C/C1=N\O (stereo in doubt),Non-Toxic

# Tested on: A549
# Experiment: Cytotoxicity against human A549/ATCC cells assessed as effect on cell growth at 10 uM incubated for 48 hrs by sulforhodamine B assay
# Format: cell-based
# Conditions: a549, 48 h
row,SMILES,Activity
1,O=C(NCc1ccc(Cl)cc1Cl)c1ccccn1,Non-Toxic
2,O=C(NCCc1ccccc1)[C@@H]1CCC(=O)N1Cc1ccc(Cl)cc1Cl,Non-Toxic
3,O=C1N[C@H](C(=O)NCc2ccc(Cl)cc2Cl)C/C1=N\O (stereo in doubt),Non-Toxic

# Tested on: HL-60(TB)
# Experiment: Cytotoxicity against human HL-60(TB) cells assessed as effect on cell growth at 10 uM incubated for 48 hrs by sulforhodamine B assay
# Format: cell-based
# Conditions: not given
row,SMILES,Activity
1,O=C(NCc1ccc(Cl)cc1Cl)c1ccccn1,Non-Toxic
2,O=C(NCCc1ccccc1)[C@@H]1CCC(=O)N1Cc1ccc(Cl)cc1Cl,Non-Toxic
3,O=C1N[C@H](C(=O)NCc2ccc(Cl)cc2Cl)C/C1=N\O (stereo in doubt),Non-Toxic

# Tested on: MOLT-4
# Experiment: Cytotoxicity against human MOLT4 cells assessed as effect on cell growth at 10 uM incubated for 48 hrs by sulforhodamine B assay
# Format: cell-based
# Conditions: molt-4, 48 h
row,SMILES,Activity
1,O=C(NCc1ccc(Cl)cc1Cl)c1ccccn1,Non-Toxic
2,O=C(NCCc1ccccc1)[C@@H]1CCC(=O)N1Cc1ccc(Cl)cc1Cl,Non-Toxic
3,O=C1N[C@H](C(=O)NCc2ccc(Cl)cc2Cl)C/C1=N\O (stereo in doubt),Non-Toxic

# Tested on: SF-295
# Experiment: Cytotoxicity against human SF295 cells assessed as effect on cell growth at 10 uM incubated for 48 hrs by sulforhodamine B assay
# Format: cell-based
# Conditions: sf-295, 48 h
row,SMILES,Activity
1,O=C(NCc1ccc(Cl)cc1Cl)c1ccccn1,Non-Toxic
2,O=C(NCCc1ccccc1)[C@@H]1CCC(=O)N1Cc1ccc(Cl)cc1Cl,Non-Toxic
3,O=C1N[C@H](C(=O)NCc2ccc(Cl)cc2Cl)C/C1=N\O (stereo in doubt),Non-Toxic

# Tested on: ACHN
# Experiment: Cytotoxicity against human ACHN cells assessed as effect on cell growth at 10 uM incubated for 48 hrs by sulforhodamine B assay
# Format: cell-based
# Conditions: not given
row,SMILES,Activity
1,O=C(NCc1ccc(Cl)cc1Cl)c1ccccn1,Non-Toxic
2,O=C(NCCc1ccccc1)[C@@H]1CCC(=O)N1Cc1ccc(Cl)cc1Cl,Non-Toxic
3,O=C1N[C@H](C(=O)NCc2ccc(Cl)cc2Cl)C/C1=N\O (stereo in doubt),Non-Toxic

# Tested on: M14
# Experiment: Cytotoxicity against human M14 cells assessed as effect on cell growth at 10 uM incubated for 48 hrs by sulforhodamine B assay
# Format: cell-based
# Conditions: m14, 48 h
row,SMILES,Activity
1,O=C(NCc1ccc(Cl)cc1Cl)c1ccccn1,Non-Toxic
2,O=C(NCCc1ccccc1)[C@@H]1CCC(=O)N1Cc1ccc(Cl)cc1Cl,Non-Toxic
3,O=C1N[C@H](C(=O)NCc2ccc(Cl)cc2Cl)C/C1=N\O (stereo in doubt),Non-Toxic

# Tested on: A498
# Experiment: Cytotoxicity against human A498 cells assessed as effect on cell growth at 10 uM incubated for 48 hrs by sulforhodamine B assay
# Format: cell-based
# Conditions: a498, 48 h
row,SMILES,Activity
1,O=C(NCc1ccc(Cl)cc1Cl)c1ccccn1,Non-Toxic
2,O=C(NCCc1ccccc1)[C@@H]1CCC(=O)N1Cc1ccc(Cl)cc1Cl,Non-Toxic
3,O=C1N[C@H](C(=O)NCc2ccc(Cl)cc2Cl)C/C1=N\O (stereo in doubt),Non-Toxic

# Tested on: SR
# Experiment: Cytotoxicity against human SR cells assessed as effect on cell growth at 10 uM incubated for 48 hrs by sulforhodamine B assay
# Format: cell-based
# Conditions: not given
row,SMILES,Activity
1,O=C(NCc1ccc(Cl)cc1Cl)c1ccccn1,Non-Toxic
2,O=C(NCCc1ccccc1)[C@@H]1CCC(=O)N1Cc1ccc(Cl)cc1Cl,Non-Toxic
3,O=C1N[C@H](C(=O)NCc2ccc(Cl)cc2Cl)C/C1=N\O (stereo in doubt),Non-Toxic

# Tested on: HCT-15
# Experiment: Cytotoxicity against human HCT15 cells assessed as effect on cell growth at 10 uM incubated for 48 hrs by sulforhodamine B assay
# Format: cell-based
# Conditions: hct-15, 48 h
row,SMILES,Activity
1,O=C(NCc1ccc(Cl)cc1Cl)c1ccccn1,Non-Toxic
2,O=C(NCCc1ccccc1)[C@@H]1CCC(=O)N1Cc1ccc(Cl)cc1Cl,Non-Toxic
3,O=C1N[C@H](C(=O)NCc2ccc(Cl)cc2Cl)C/C1=N\O (stereo in doubt),Non-Toxic

# Tested on: NCI-H460
# Experiment: Cytotoxicity against human NCI-H460 cells assessed as effect on cell growth at 10 uM incubated for 48 hrs by sulforhodamine B assay
# Format: cell-based
# Conditions: nci-h460, 48 h
row,SMILES,Activity
1,O=C(NCc1ccc(Cl)cc1Cl)c1ccccn1,Non-Toxic
2,O=C(NCCc1ccccc1)[C@@H]1CCC(=O)N1Cc1ccc(Cl)cc1Cl,Non-Toxic
3,O=C1N[C@H](C(=O)NCc2ccc(Cl)cc2Cl)C/C1=N\O (stereo in doubt),Non-Toxic

# Tested on: UO-31
# Experiment: Cytotoxicity against human UO31 cells assessed as effect on cell growth at 10 uM incubated for 48 hrs by sulforhodamine B assay
# Format: cell-based
# Conditions: uo-31, 48 h
row,SMILES,Activity
1,O=C(NCc1ccc(Cl)cc1Cl)c1ccccn1,Non-Toxic
2,O=C(NCCc1ccccc1)[C@@H]1CCC(=O)N1Cc1ccc(Cl)cc1Cl,Non-Toxic
3,O=C1N[C@H](C(=O)NCc2ccc(Cl)cc2Cl)C/C1=N\O (stereo in doubt),Non-Toxic

# Tested on: DU-145
# Experiment: Cytotoxicity against human DU145 cells assessed as effect on cell growth at 10 uM incubated for 48 hrs by sulforhodamine B assay
# Format: cell-based
# Conditions: du-145, 48 h
row,SMILES,Activity
1,O=C(NCc1ccc(Cl)cc1Cl)c1ccccn1,Non-Toxic
2,O=C(NCCc1ccccc1)[C@@H]1CCC(=O)N1Cc1ccc(Cl)cc1Cl,Non-Toxic
3,O=C1N[C@H](C(=O)NCc2ccc(Cl)cc2Cl)C/C1=N\O (stereo in doubt),Non-Toxic

# Tested on: SK-OV-3
# Experiment: Cytotoxicity against human SKOV3 cells assessed as effect on cell growth at 10 uM incubated for 48 hrs by sulforhodamine B assay
# Format: cell-based
# Conditions: sk-ov-3, 48 h
row,SMILES,Activity
1,O=C(NCc1ccc(Cl)cc1Cl)c1ccccn1,Non-Toxic
2,O=C(NCCc1ccccc1)[C@@H]1CCC(=O)N1Cc1ccc(Cl)cc1Cl,Non-Toxic
3,O=C1N[C@H](C(=O)NCc2ccc(Cl)cc2Cl)C/C1=N\O (stereo in doubt),Non-Toxic

# Tested on: OVCAR-5
# Experiment: Cytotoxicity against human OVCAR5 cells assessed as effect on cell growth at 10 uM incubated for 48 hrs by sulforhodamine B assay
# Format: cell-based
# Conditions: ovcar-5, 48 h
row,SMILES,Activity
1,O=C(NCc1ccc(Cl)cc1Cl)c1ccccn1,Non-Toxic
2,O=C(NCCc1ccccc1)[C@@H]1CCC(=O)N1Cc1ccc(Cl)cc1Cl,Non-Toxic
3,O=C1N[C@H](C(=O)NCc2ccc(Cl)cc2Cl)C/C1=N\O (stereo in doubt),Non-Toxic

# Tested on: 786-0
# Experiment: Cytotoxicity against human 786-0 cells assessed as effect on cell growth at 10 uM incubated for 48 hrs by sulforhodamine B assay
# Format: cell-based
# Conditions: 786-0, 48 h
row,SMILES,Activity
1,O=C(NCc1ccc(Cl)cc1Cl)c1ccccn1,Non-Toxic
2,O=C(NCCc1ccccc1)[C@@H]1CCC(=O)N1Cc1ccc(Cl)cc1Cl,Non-Toxic
3,O=C1N[C@H](C(=O)NCc2ccc(Cl)cc2Cl)C/C1=N\O (stereo in doubt),Non-Toxic

# Tested on: KM12
# Experiment: Cytotoxicity against human KM12 cells assessed as effect on cell growth at 10 uM incubated for 48 hrs by sulforhodamine B assay
# Format: cell-based
# Conditions: km12, 48 h
row,SMILES,Activity
1,O=C(NCc1ccc(Cl)cc1Cl)c1ccccn1,Non-Toxic
2,O=C(NCCc1ccccc1)[C@@H]1CCC(=O)N1Cc1ccc(Cl)cc1Cl,Non-Toxic
3,O=C1N[C@H](C(=O)NCc2ccc(Cl)cc2Cl)C/C1=N\O (stereo in doubt),Non-Toxic

# Tested on: SF-539
# Experiment: Cytotoxicity against human SF539 cells assessed as effect on cell growth at 10 uM incubated for 48 hrs by sulforhodamine B assay
# Format: cell-based
# Conditions: sf-539, 48 h
row,SMILES,Activity
1,O=C(NCc1ccc(Cl)cc1Cl)c1ccccn1,Non-Toxic
2,O=C(NCCc1ccccc1)[C@@H]1CCC(=O)N1Cc1ccc(Cl)cc1Cl,Non-Toxic
3,O=C1N[C@H](C(=O)NCc2ccc(Cl)cc2Cl)C/C1=N\O (stereo in doubt),Non-Toxic
